Assay results from patent US20070112044A1, “Thiadiazoline derivative” (Kyowa Hakko Kogyo Co., Ltd., priority 2003, published 2007).
Like-named read-outs stand apart in the source and are kept apart here.

What was measured:
[1] = biological target: T1, recombinant human Eg5 motor domain protein (Homo sapiens, UniProt P52732); test: Eg5 enzyme inhibition test (2), ATPase activity; type: biochemical; settings: 30° C. for 30 minutes, concentration-dependent inhibition
T1 construct: A plasmid expressing the motor domain of human Eg5 was constructed; made in house; host or cells: Escherichia coli BL21 (DE3)
T1 sequence (P52732 18-359 limits assumed): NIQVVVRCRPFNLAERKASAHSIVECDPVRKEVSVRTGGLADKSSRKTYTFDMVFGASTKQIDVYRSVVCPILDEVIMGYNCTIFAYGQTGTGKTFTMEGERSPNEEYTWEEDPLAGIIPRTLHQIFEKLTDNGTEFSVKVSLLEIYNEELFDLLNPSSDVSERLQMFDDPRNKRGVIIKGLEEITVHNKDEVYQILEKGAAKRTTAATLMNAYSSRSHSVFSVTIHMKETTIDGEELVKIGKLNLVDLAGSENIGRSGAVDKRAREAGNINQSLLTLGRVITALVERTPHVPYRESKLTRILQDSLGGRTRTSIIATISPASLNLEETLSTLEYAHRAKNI
Method: A recombinant human Eg5 motor domain protein was prepared by referring to the literature [Biochemistry, Vol. 35, p. 2365 (1996)]. A plasmid expressing the motor domain of human Eg5 was constructed, and transformed into Escherichia coli BL21 (DE3). The transformant was cultured at 25° C, and when the OD600 reached 0.74, isopropyl-β-D-thiogalactoside was added at a final concentration of 0.5 mmol/L. The transformant was further cultured for 4 hours, and then the culture medium was centrifuged to collect the cells. The cells were suspended in a buffer and ultrasonicated, and then the sonicated solution was centrifuged to recover the supernatant. The supernatant was purified by cation exchange column chromatography to obtain a partially purified sample. Furthermore, the partially purified sample was purified by gel filtration column chromatography to obtain a finally purified sample.
Measurement of the ATPase activity of Eg5 was carried out by referring to the literatures [EMBO Journal, Vol. 13, p. 751 (1994); Proc. Natl. Acad. Sci. USA, Vol. 89, p. 4884 (1992)]. The following two kinds of solutions were prepared: Solution A consisting of 25 mmol/L piperazine N,N′-bis(ethanesulfonate) (PIPES)/KOH (pH 6.8), 1 mmol/L ethylene glycol-bis(2-aminoethyl ether)tetraacetic acid (EGTA), 2 mmol/L MgCl2, 1 mmol/L dithiothreitol (DTT), 5 μmol/L paclitaxel, 167 μg/mL bovine serum albumin (BSA), 41.7 μg/mL tubulin (Cytoskeleton, Catalog No. TL238), 333 μmol/L MESG substrate (2-amino-6-mercapto-7-methylpurine riboside) (Molecular Probes, Catalog Number E-6646), 1.67 U/mL purine nucleoside phosphorylase (Molecular Probe, Catalog No. E-6646) and 1.33 μg/mL of the human Eg5 motor domain purified sample, and Solution B consisting of 25 mmol/L piperazine N,N′-bis(ethanesulfonate) (PIPES)/KOH (pH 6.8), 1 mmol/L ethylene glycol-bis(2-aminoethyl ether)tetraacetic acid (EGTA), 2 mmol/L MgCl2, 1 mmol/L dithiothreitol (DTT), 5 μmol/L paclitaxel and 2.5 mmol/L ATP. Solution A was dispensed into each well of a 96-well plate as 45 μL portions. Solution B was used to serially dilute a test compound. The diluted test compound solutions in a volume of 30 μL were mixed with Solution A added beforehand in each well of the 96-well plate to start the enzymatic reaction. The enzymatic reaction was performed at 30° C. for 30 minutes. Absorbance at 360 nm, which serves as an index of the ATPase activity, was measured using a plate reader (Molecular Device, SpectraMax 340PC^384). The absorbance observed in the presence of Eg5 and absence of the test compound was defined 100%, and the absorbance observed in the absence of both Eg5 and the test compound was defined 0%. The relative activity was calculated to calculate IC50 value.

[2] = tested on: HCT 116 human colon carcinoma cells; test: Antiproliferative activity against HCT 116 human colon carcinoma cells (XTT); type: cell-based
Method: HCT 116 cells (ATCC No.: CCL-247) were placed on a 96-well microtiter plate (Nunc, 167008) at a density of 1×10^3 cells/well. The plate was incubated in a 5% CO2 incubator at 37° C. for 24 hours, and then to the plate was added test compounds diluted stepwise to 100 μL/well in total, and the plate was further incubated in a 5% CO2 incubator at 37° C. for 72 hours. To the culture medium, the XTT (sodium 3′-[1-(phenylaminocarbonyl)-3,4-tetrazolium]-bis(4-methoxy-6-nitro)benzenesulfonic acid hydrate) labeling mixture (Roche Diagnostics, 1465015) was dispensed in 50 μL/well portions, then the plate was incubated in a 5% CO2 incubator at 37° C. for 1 hour, and the absorbance was measured at 490 nm and 655 nm with a microplate spectrophotometer (Bio-Rad, Model 550). The inhibitory activity against cell proliferation was shown as GI50, a concentration of compound at which induces 50% inhibition of cell proliferation.
GI50 calculation method: The value (difference in absorbance) was calculated by subtracting the absorbance at 655 nm from the absorbance at 490 nm of each well. The difference in absorbance obtained from the cells untreated with a test compound was defined as 100%, and compared with the difference in absorbance obtained from the cells treated with the solution of the compound in the known concentration, and thereby the concentration of the compound of 50% inhibition against cell proliferation was calculated to obtain GI50.

[3] = HCT 116 cells, 72 hours incubation, XTT, 50% inhibition of cell proliferation, read-out: GI50

Row | SMILES | IC50 [1] [nM] | GI50 [2, 3] [nM] | GI50 ([2]; HCT-116, 72 h) [nM]
1 | CC(=O)N1N=C(c2ccccc2F)SC1(C)c1ccccc1 (stereo not drawn) [Compound 22] | ≤ 10000 | 83 | –
2 | CC(=O)N1N=C(c2cccc(F)c2)SC1(C)c1ccccc1 (stereo not drawn) [Compound 24] | ≤ 10000 | 220 | –
3 | CC(=O)N1N=C(c2ccco2)SC1(C)c1ccccc1 (stereo not drawn) [Compound 1] | ≤ 10000 | – | 530
4 | CC(=O)N1N=C(c2ccccc2F)SC1(CNS(=O)(=O)CCN)c1ccccc1 (stereo not drawn) [Compound 49] | ≤ 10000 | < 100 | –
5 | CC(=O)N1N=C(c2ccccc2F)SC1(CCNC(=O)CCCN(C)C)c1ccccc1 (stereo not drawn) [Compound 61] | ≤ 10000 | < 100 | –
6 | CC(=O)N1N=C(C#CC(C)(C)C)SC1(CNS(C)(=O)=O)c1ccccc1 (stereo not drawn) [Compound 20] | ≤ 10000 | 200 | –
7 | CC(=O)N1N=C(C(=O)NC(C)(C)C)SC1(CNS(=O)(=O)CCN(C)C)c1ccccc1 (stereo not drawn) [Compound 68] | ≤ 10000 | 190 | –
8 | CC(=O)N1N=C(c2ccccc2F)SC1(CCCN1CCN(C)CC1)c1ccccc1 (stereo not drawn) [Compound 62] | ≤ 10000 | 160 | –
9 | CC(=O)N1N=C(c2cccn2C(=O)OC(C)(C)C)SC1(C)c1ccccc1 (stereo not drawn) [Compound 5] | ≤ 10000 | 170 | –
10 | CC(=O)N1N=C(c2ccccc2F)SC1(CNC(=O)CN)c1ccccc1 (stereo not drawn) [Compound 55] | ≤ 10000 | < 100 | –
11 | CC(=O)N1N=C(C(=O)NC(C)(C)C)SC1(C)c1ccccc1 (stereo not drawn) [Compound 44] | ≤ 10000 | 410 | –
12 | CC(=O)N1N=C(c2ccccc2)SC1(CNS(C)(=O)=O)c1ccccc1 (stereo not drawn) [Compound 10] | ≤ 10000 | 180 | –
